By MIC is commonly meant the smallest concentration in the dilution series that meets the test's criterion for growth inhibition. One may read the IC50 as the concentration needed to halve the response being measured.

This is an account of results in US20180044316A1, “POTENTIATORS OF BETA-LACTAM ANTIBIOTICS” (UNIVERSITY OF NOTRE DAME DU LAC, priority 2015, published 2018).

The test system of test [1] is BlaR1 phosphorylation. Nature of the test: BlaR1 phosphorylation by western blot in CBAP-induced NRS128 whole-cell extracts. The settings on record: NRS128 induced with 10 μg/mL CBAP, compound at 7 or 17 μg/mL. Format: cell-based, Staphylococcus aureus NRS128. The procedure: Next, we tested the effect of exposure of CBAP-induced NRS128 to this kinase inhibitor. Cultures were induced with 10 μg/mL CBAP in the presence of 0, 7, or 17 μg/mL of compound 1. Whole-cell extracts of these bacteria were analyzed for BlaR1 phosphorylation by western blot using anti-Phos-Ser and anti-Phos-Tyr antibodies. Compound 1 inhibited both the phosphotyrosine and phosphoserine kinase activities by as much as 70-90% (FIG. 4).
Detection of BlaR1 phosphorylation in presence of antibiotic. As we had disclosed in a recent publication on fragmentation of BlaR1 during the course of induction, we detect a cleavage at position S283-F284 of BlaR1 (Llarrull et al., J. Biol. Chem. 2011, 286, 38148-38158). This proteolytic cleavage cuts the BlaR1 protein into two fragments of roughly equal sizes (approx. 30-31 kDa). […]
Extracts were prepared as previously described in buffer containing 50 mM Tris pH 7.5, 150 mM NaCl, 2 mM EDTA, 0.55% SDS, 2.5% Triton X-100, and Halt Protease and Phosphatase Inhibitor Cocktail (Thermo Scientific, Waltham, Mass., U.S.A.) and analyzed by Western blot using antibodies against phosphothreonine, phosphotyrosine, and phosphoserine. A ˜30 kDa protein band was detected by the phosphotyrosine and phosphoserine specific antibodies only in cell extracts of S. aureus cells grown with CBAP (FIG. 2). This band was not detected by the phosphothreonine antibody. […]
For orientation: A western blot detects proteins with antibodies after separation by electrophoresis.

Another test has as its system S. aureus MRSA252. In words: MIC determination (broth microdilution), oxacillin with or without kinase inhibitor. As to conditions: for MIC: Staphylococcus aureus; for MIC of oxacillin in the presence of compound: compound at 7 μg/mL. Type of test: cell-based, Staphylococcus aureus. The procedure: A protein-kinase inhibitor library of 80 known compounds was tested in a 96-well format against strain MRSA252 for the screening. We first determined MICs (broth microdilution method) (CLSI, Performance Standards for Antimicrobial Susceptibility Testing; Twenty-Second Informational Supplement. CLSI document M100-S22. Clinical and Laboratory Standards Institute; Wayne, Pa.) for all the inhibitors in the library, in case some of them might have antibacterial properties of their own, which could complicate the analysis.
This rapid initial screening identified compound 1 as meeting the selection criteria of lowering the MIC for oxacillin, which was followed up by the actual evaluation of the MIC of oxacillin against S. aureus MRSA252 in the presence of the inhibitor.
(§1) Minimal-inhibitory concentration (MIC) determination. Determination of MICs was done by the microdilution method cation-adjusted in Mueller-Hinton II Broth (CAMHB II, BBL) in accordance with the protocols of CLSI (Performance Standards for Antimicrobial Susceptibility Testing; Twenty-Second Informational Supplement. CLSI document M100-S22. Clinical and Laboratory Standards Institute Wayne, Pa.). A final bacterial inoculum of 5×10^5 CFU/mL was used, and the results were recorded after incubation for 16-20 h at 37° C.
(In broth dilution the organism is exposed to a series of concentrations in liquid medium.)

Test [2] has as its system BlaR1 phosphorylation. In words: BlaR1 phosphorylation by western blot in CBAP-induced NRS70 whole-cell extracts. Type of test: cell-based, Staphylococcus aureus NRS70. As to conditions: for tyrosine phosphorylation of the BlaR1 fragment: NRS70, CBAP-induced, 7 μg/mL inhibitor; for serine phosphorylation of BlaR1 fragment: NRS70, even at 17 μg/mL. The procedure:
We then evaluated the ability of compounds 10, 11 or 12 to inhibit tyrosine phosphorylation of BlaR1 in NRS70 extracts. The bacteria were grown under the conditions described earlier for NRS128, induced by CBAP in the absence and presence of 0.7 μg/mL or 7 μg/mL compounds 10, 11 or 12, and analyzed by western blot using antibody against phosphotyrosine (FIG. 5a). […] However, serine phosphorylation was not inhibited by any of these compounds, even at 17 μg/mL (FIG. 6), in contrast to the case of 1, which had inhibited both. This provides evidence for the critical nature of tyrosine phosphorylation for regulation of BlaR1.
To overcome this, we subsequently cleared all S. aureus extracts of Protein A and other immunoglobulin-binding proteins by incubation with IgG Sepharose (GE Healthcare, Little Chalfont, UK) for 1-2 h at room temperature with gentle agitation. After a brief centrifugation, the total protein in the supernatant was quantified by a BCA assay and 20 μg was loaded onto an 11% SDS-PAGE gel. Following electrophoresis, samples were transferred to a nitrocellulose membrane in a 10 mM CAPS (pH 11) buffer containing 10% methanol. Membranes were blocked in 3% BSA for phosphoserine blots or Blotto (3% BSA, 3% milk in TBS) for phosphotyrosine blots. HRP-conjugated primary antibody was applied in either 1% BSA/TBST (phosphoserine, Abcam, Cambridge, UK) or 1.1% milk/TBST (phosphotyrosine, 4G10 Platinum, EMD Millipore, Billerica, Mass., U.S.A.). Phosphoserine blots were developed with Pierce ECL Substrate (Thermo Scientific) and phosphotyrosine blots were developed with SuperSignal West Dura Extended Duration Substrate (Thermo Scientific), then exposed to X-ray film for an appropriate amount of time (30-600 s).

Test [3] has as its target T1, Stk1 protein kinase (Staphylococcus aureus, UniProt A0ABF7PGK0). In words: In vitro phosphorylation assay: phosphorylation of myelin basic protein (MBP) by Stk1. Type of test: biochemical, S. aureus strain NRS70. The settings on record: IC50, inhibition of MBP phosphorylation by Stk1, [γ-32P]-ATP 20 μM. The source says: (§2) Cloning, expression, and purification of S. aureus Stk1 protein kinase. The stk1 gene for Stk1 protein kinase (SA1063 in S. aureus NRS70) is conserved in all known genomic sequences for S. aureus (Beltramini et al., Infect. Immun. 77, 1406-1416 (2009); Débarbouillé et al., J. Bacteriol. 191, 4070-4081 (2009); Didier et al., FEMS Microbiol. Lett. 306, 30-36 (2010)). We PCR-amplified the DNA fragment corresponding to the entire coding sequences of stk1 from S. aureus strain NRS70 chromosomal DNA with primers STK1fw (5′-[…] […]-3′) and STK1rev (5′-[…] […]-3′). The amplified DNA fragments were then digested with NdeI and XhoI restriction enzymes and cloned into pET28a. After verification of the inserts by DNA sequencing on both strands, the resulting plasmid (termed pETstk1) was introduced into E. coli strain BL21(DE3) for protein expression.
(§3) For purification of Stk1, 5 mL of an overnight culture of BL21(DE3) harboring pETstk1 was inoculated into 500 mL fresh LB medium and grown at 37° C. until the OD600 reached 0.8. Isopropyl β-D-1-thiogalactopyranoside (IPTG) was then added to the culture to a final concentration of 0.5 mM and the culture was shaken at 15° C. overnight. The culture was then centrifuged at 5000 rpm at 4° C. for 15 min. The pellet was resuspended in 20 mL of lysis buffer (25 mM HEPES, 500 mM NaCl, 10 mM imidazole, pH 7.4). After sonication, the lysate was centrifuged at 18,000 g at 4° C. for 45 min. The resulting supernatant containing the His-tagged Stk1 was loaded onto a 5-mL Hitrap Chelating column (GE Healthcare), followed by elution with a linear gradient of imidazole (0-500 mM) in lysis buffer. The fractions containing Stk1 were pooled, concentrated and the buffer was exchanged to 25 mM HEPES, pH 7.4. The resulting sample was then subjected to Q anion-exchange chromatography and eluted with a linear gradient of NaCl (0-1 M). Protein purity was ascertained by sodium dodecyl sulfate polyacrylamide gel electrophoresis (SDS-PAGE) (FIG. 7).
(§4) In vitro phosphorylation assay. […] Band intensities were quantified using GelQuant software. […]

For another test, the system named is MRSA strain NRS123. Nature of the test: MIC determination (broth microdilution), oxacillin with or without kinase inhibitor. Format: cell-based, Staphylococcus aureus. As to conditions: for MIC of oxacillin in the presence of compound: compound at 7 μg/mL.
Source text: (§5) We evaluated the new imidazole analogues for their ability to lower the MIC of oxacillin against MRSA in the same manner as for the kinase inhibitor library. In addition to MRSA252, we expanded our investigation to include strains NRS123 and NRS70, both of which have 95% sequence identities between their BlaR1 proteins and that of NRS128, with the bla operon encoded on plasmids (pMW2 and pN315, respectively).
as §1

In another test the test system is MRSA strain NRS70. The description is as above. Type of test: cell-based, Staphylococcus aureus. As to conditions: for MIC of oxacillin in the presence of compound: compound at 7 μg/mL.
Source text: as §5, §1

For test [4], the target named is T1, Stk1 protein kinase. In words: In vitro phosphorylation assay: Stk1 autophosphorylation. Format: biochemical, S. aureus strain NRS70. The settings on record: IC50, inhibition of Stk1 autophosphorylation, [γ-32P]-ATP 20 μM.
Source text: as §2, §3, §4

Where [5] appears, read: Staphylococcus aureus, no inhibitor.

“And” between values parts separate entries of the source, which are not always exact repeats. Equal values may be shown once. Read-outs that look alike come from different tables or passages of the source.

T1 sequence (A0ABF7PGK0 entry or part of it): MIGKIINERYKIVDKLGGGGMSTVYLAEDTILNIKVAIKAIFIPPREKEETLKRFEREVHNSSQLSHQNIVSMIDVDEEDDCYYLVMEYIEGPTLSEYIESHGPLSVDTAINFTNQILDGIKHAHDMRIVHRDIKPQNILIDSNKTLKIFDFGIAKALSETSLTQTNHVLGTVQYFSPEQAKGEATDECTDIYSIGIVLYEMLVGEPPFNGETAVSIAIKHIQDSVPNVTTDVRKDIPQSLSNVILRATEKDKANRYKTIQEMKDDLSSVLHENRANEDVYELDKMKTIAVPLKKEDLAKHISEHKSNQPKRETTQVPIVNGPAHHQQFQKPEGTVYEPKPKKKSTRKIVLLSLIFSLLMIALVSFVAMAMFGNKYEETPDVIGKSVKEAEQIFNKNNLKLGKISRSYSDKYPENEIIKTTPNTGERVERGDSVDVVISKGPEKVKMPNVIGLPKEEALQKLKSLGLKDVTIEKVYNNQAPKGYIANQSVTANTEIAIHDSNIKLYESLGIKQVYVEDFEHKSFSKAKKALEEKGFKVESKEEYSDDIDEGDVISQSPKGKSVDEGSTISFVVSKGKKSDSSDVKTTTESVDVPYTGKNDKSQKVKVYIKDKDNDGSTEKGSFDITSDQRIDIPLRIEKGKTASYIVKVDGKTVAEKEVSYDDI

`Oc1ccc(-c2nc(-c3ccc(F)cc3)c(-c3ccncc3)[nH]2)cc1` [Compound 1, reference compound]: in the test on BlaR1 phosphorylation [1] (anti-Phos-Ser western blot), the “inhibition of phosphoserine kinase activity (BlaR1 phosphorylation)” value is listed as 70-90%. For the same molecule, in the test on BlaR1 phosphorylation [1] (anti-Phos-Tyr western blot), the “inhibition of phosphotyrosine kinase activity (BlaR1 phosphorylation)” value is given as 70-90%. Also, the MIC with S. aureus MRSA252 (without oxacillin, read-out: MIC of the kinase inhibitor alone) was at least 64 µg/mL. Besides, the “decrease in the MIC of oxacillin” value in the test with S. aureus MRSA252 (inhibitor at 7 μg/mL) was “four-fold decrease”.

Consider `CC(C)(C)c1ccc(-c2nc(-c3ccc(F)cc3)c(-c3ccncc3)[nH]2)cc1` [Compound 10, 2-(4-tert-Butylphenyl)-4-(4-fluorophenyl)-5-(4-pyridyl)imidazole], for which the “tyrosine phosphorylation of the BlaR1 fragment” value (from here on “tyrosine phosphorylation”) in the test with BlaR1 phosphorylation [2] is reported as “almost completely abolished”. In addition, the “serine phosphorylation of BlaR1 fragment” value with BlaR1 phosphorylation [2] is reported as “not inhibited”. Besides, the IC50 is 5.65 µM and 6.1 µM at Stk1 protein kinase [3]; 8.35 µM and 8.8 µM against Stk1 protein kinase [4]. Besides, the results for the “MIC of oxacillin in the presence of compound” value (“MIC of oxacillin … of compound” for short) with MRSA strain NRS123, in the test on MRSA strain NRS70 and in the test on S. aureus MRSA252 were 8 µg/mL, 4 µg/mL and 2 µg/mL, respectively.

For the molecule `CCc1ccc(-c2nc(-c3ccc(F)cc3)c(-c3ccncc3)[nH]2)cc1` [Compound 11, 2-(4-Ethylphenyl)-4-(4-fluorophenyl)-5-(4-pyridyl)imidazole], the “tyrosine phosphorylation” value in the test with BlaR1 phosphorylation [2] is listed as “almost completely abolished”. The “serine phosphorylation of BlaR1 fragment” value in the test on BlaR1 phosphorylation [2] is on record as “not inhibited”. In addition, the concentration for half-maximal inhibition (IC50) is 11.6 µM and 12.2 µM and 12 µM against Stk1 protein kinase [3]; 14.6 µM and 14.9 µM and 14.7 µM against Stk1 protein kinase [4]. Besides, the “MIC of oxacillin … of compound” value in the test with MRSA strain NRS123 is 4 µg/mL; with MRSA strain NRS70 it was 0.5 µg/mL; in the test on S. aureus MRSA252, 16 µg/mL.

`CC(C)Cc1ccc(-c2nc(-c3ccc(F)cc3)c(-c3ccncc3)[nH]2)cc1` [Compound 12, 2-(4-iso-Butylphenyl)-4-(4-fluorophenyl)-5-(4-pyridyl)imidazole]: the “tyrosine phosphorylation” value in the test on BlaR1 phosphorylation [2] was “almost completely abolished”. For the same molecule, in the test on BlaR1 phosphorylation [2], the “serine phosphorylation of BlaR1 fragment” value is “not inhibited”. Moreover, the IC50 was 16.2 µM and 15.3 µM on Stk1 protein kinase [3]; 16.2 µM and 17 µM and 18 µM at Stk1 protein kinase [4]. Besides, the “MIC of oxacillin … of compound” value in the test with MRSA strain NRS123 came to 4 µg/mL; in the test on MRSA strain NRS70, 0.5 µg/mL; in the test on S. aureus MRSA252, 4 µg/mL.

With `Cc1onc(-c2ccccc2)c1C(=O)N[C@@H]1C(=O)N2[C@@H]1SC(C)(C)[C@@H]2C(=O)O` [oxacillin, reference compound], the MIC worked out at 16 µg/mL in the test on MRSA strain NRS123 (setting [5]); 32 µg/mL in the test with MRSA strain NRS70 (setting [5]); 256 µg/mL in the test with S. aureus MRSA252 (no inhibitor, read-out: MIC of oxacillin).
